Experimental data taken from the supplement of paper PMC10307832.

Key:
Experiment in all cases: relative viability (nuclei count vs DMSO), 5 days (fraction); higher = more cells survive
[1] = test system: A-427
How it was run: (§1)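 Lung cancer cell lines in 1536-well plates got either a single drug or a fixed anchor-drug dose together with five library-drug doses (not always all listed) in √10 steps, by pin tool, on the day after seeding. Nuclei were counted after 5 days, and relative viability is the treated-to-vehicle ratio of nuclei counts. Values are medians of duplicate plates.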

[2] = test system: COR-L 105
How it was run: as §1

[3] = test system: EKVX
How it was run: as §1

[4] = test system: EMC-BAC-2
How it was run: as §1

[5] = test system: EPLC-272H
How it was run: as §1

[6] = test system: HARA
How it was run: as §1

[7] = test system: HCC-44
How it was run: as §1

[8] = test system: LK-2
How it was run: as §1

[9] = test system: LU99A
How it was run: as §1

[10] = test system: NCI-H1650
How it was run: as §1

[11] = test system: NCI-H1734
How it was run: as §1

[12] = test system: NCI-H1755
How it was run: as §1

[13] = test system: NCI-H1792
How it was run: as §1

[14] = test system: NCI-H1993
How it was run: as §1

[15] = test system: NCI-H2405
How it was run: as §1

[16] = test system: NCI-H358
How it was run: as §1

[17] = test system: NCI-H460
How it was run: as §1

[18] = test system: NCI-H596
How it was run: as §1

[19] = test system: NCI-H647
How it was run: as §1

[20] = test system: RERF-LC-KJ
How it was run: as §1

## Nc1cccc2c1CN(C1CCC(=O)NC1=O)C2=O (configuration not stated) [Lenalidomide] + CS(=O)(=O)CCNCc1ccc(-c2ccc3ncnc(Nc4ccc(OCc5cccc(F)c5)c(Cl)c4)c3c2)o1 [Lapatinib] (partner 2 µM)
[1]; first compound 0.253 µM
  relative viability: 0.983
[1]; first compound 2.53 µM
  relative viability: 1.1
[1]; first compound 8 µM
  relative viability: 0.975
[2]; first compound 0.253 µM
  relative viability: 0.386
[2]; first compound 0.8 µM
  relative viability: 0.364
[2]; first compound 2.53 µM
  relative viability: 0.343
[2]; first compound 8 µM
  relative viability: 0.33
[3]; first compound 0.253 µM
  relative viability: 0.208
[3]; first compound 0.8 µM
  relative viability: 0.173
[3]; first compound 2.53 µM
  relative viability: 0.189
[3]; first compound 8 µM
  relative viability: 0.157
[4]; first compound 0.253 µM
  relative viability: 0.921
[4]; first compound 0.8 µM
  relative viability: 0.825
[4]; first compound 2.53 µM
  relative viability: 0.905
[4]; first compound 8 µM
  relative viability: 0.754
[5]; first compound 0.253 µM
  relative viability: 0.97
[5]; first compound 2.53 µM
  relative viability: 0.976
[5]; first compound 8 µM
  relative viability: 0.648
[6]; first compound 0.253 µM
  relative viability: 0.775
[6]; first compound 0.8 µM
  relative viability: 0.653
[6]; first compound 2.53 µM
  relative viability: 0.8
[6]; first compound 8 µM
  relative viability: 0.571
[7]; first compound 0.253 µM
  relative viability: 0.997
[7]; first compound 0.8 µM
  relative viability: 0.799
[7]; first compound 2.53 µM
  relative viability: 1.05
[7]; first compound 8 µM
  relative viability: 0.924
[8]; first compound 0.253 µM
  relative viability: 0.884
[8]; first compound 2.53 µM
  relative viability: 0.864
[8]; first compound 8 µM
  relative viability: 0.709
[9]; first compound 0.253 µM
  relative viability: 0.922
[9]; first compound 0.8 µM
  relative viability: 0.919
[9]; first compound 2.53 µM
  relative viability: 0.894
[9]; first compound 8 µM
  relative viability: 0.56
[10]; first compound 0.253 µM
  relative viability: 0.75
[10]; first compound 0.8 µM
  relative viability: 0.485
[10]; first compound 2.53 µM
  relative viability: 0.835
[10]; first compound 8 µM
  relative viability: 0.731
[11]; first compound 0.253 µM
  relative viability: 1.09
[11]; first compound 0.8 µM
  relative viability: 1.1
[11]; first compound 2.53 µM
  relative viability: 1.18
[11]; first compound 8 µM
  relative viability: 0.969
[12]; first compound 0.253 µM
  relative viability: 1.02
[12]; first compound 0.8 µM
  relative viability: 1
[12]; first compound 2.53 µM
  relative viability: 1.04
[12]; first compound 8 µM
  relative viability: 0.916
[13]; first compound 0.253 µM
  relative viability: 0.946
[13]; first compound 0.8 µM
  relative viability: 0.729
[13]; first compound 2.53 µM
  relative viability: 1.03
[13]; first compound 8 µM
  relative viability: 0.666
[14]; first compound 0.253 µM
  relative viability: 0.894
[14]; first compound 0.8 µM
  relative viability: 0.831
[14]; first compound 2.53 µM
  relative viability: 0.821
[14]; first compound 8 µM
  relative viability: 0.722
[15]; first compound 0.253 µM
  relative viability: 1
[15]; first compound 0.8 µM
  relative viability: 0.949
[15]; first compound 2.53 µM
  relative viability: 1.03
[15]; first compound 8 µM
  relative viability: 0.884
[16]; first compound 0.253 µM
  relative viability: 0.41
[16]; first compound 0.8 µM
  relative viability: 0.623
[16]; first compound 2.53 µM
  relative viability: 0.51
[16]; first compound 8 µM
  relative viability: 0.453
[17]; first compound 0.253 µM
  relative viability: 0.981
[17]; first compound 0.8 µM
  relative viability: 1.14
[17]; first compound 2.53 µM
  relative viability: 1.66
[17]; first compound 8 µM
  relative viability: 1.01
[18]; first compound 0.253 µM
  relative viability: 1.14
[18]; first compound 0.8 µM
  relative viability: 0.919
[18]; first compound 2.53 µM
  relative viability: 1.1
[18]; first compound 8 µM
  relative viability: 0.995
[19]; first compound 0.253 µM
  relative viability: 0.995
[19]; first compound 0.8 µM
  relative viability: 0.981
[19]; first compound 2.53 µM
  relative viability: 1.46
[19]; first compound 8 µM
  relative viability: 0.88
[20]; first compound 0.253 µM
  relative viability: 0.86
[20]; first compound 0.8 µM
  relative viability: 0.778
[20]; first compound 2.53 µM
  relative viability: 0.904
[20]; first compound 8 µM
  relative viability: 0.757
